Legend:
[1] = system: Malassezia furfur CBS 7019; experiment: Formulation bio-efficacy (Malassezia kill) by Vitro-Skin assay; type: cell-based; details: FIG. 5
Description: Assessment of Formulation Bio-Efficacy (Malassezia Kill) by Vitro-Skin™ Assay Formulation bio-efficacy was assessed using an in vitro substantivity assay which evaluates the effectiveness of actives in shampoo and conditioners using Malassezia furfur CBS 7019 as the organism. Malassezia furfur for the inoculation of artificial skin were initially grown in Pityrosporum Broth, and added to molten agar slurry immediately prior to the inoculation of the Vitro-Skin™ at a final concentration of 1-3×10^5 cells/ml. Vitro-Skin™ was placed onto a Modified Dixon Agar Plate (1 skin per plate), and 0.5 ml of agar slurry inoculum was gently pipetted onto the rough surface of the skin, in a film 1-2 mm deep. After the agar had gelled, the plates were placed in an incubator (32° C.) for 24 h. Following incubation, each piece of Vitro-Skin™ was carefully folded in half (inoculum on the inside) using sterile forceps, and placed a vial containing 10 ml of Butterfield's phosphate buffer (pH 7.2), 0.1% Triton X-100, 0.5% Tween and 0.08% lecithin. The vial was vortexed for 1 min (high setting), and 1 ml of this sample (10°) then added to 9 ml of 0.1% peptone (in water: 10^−1 sample). This sample was then serially diluted to 10^−5 in 0.1% peptone. For immediate controls, 0.1 ml of 10^0-10^−4 dilutions were plated onto Modified Dixon Agar Plates. For 24 h incubated samples, 0.1 ml of 10^0-10^−5 dilutions were plated onto Modified Dixon Agar Plates, and incubated at 32° C. for 4-5 days. The number of colonies on each plate were then counted, and final numbers determined by multiplying by the appropriate dilution.

[2] = cited from earlier work
[3] = 0.2% active alone in shampoo formula 1

Compound | microkill (Malassezia furfur kill) [1, 3] | microkill (Malassezia furfur kill) ([1]; 0.1% active alone in shampoo formula 1) | solubility in ethanol ([2]; ethanol, ambient temperature) | solubility in water ([2]; water)
O=C(O)c1ccccc1O [salicylic acid] | relatively ineffective |  |  | 
CC1CCC(C(C)C)C(O)C1 (stereo not drawn) [menthol] | relatively ineffective |  |  | 
CC(=O)N1CCN(c2ccc(OC[C@@H]3CO[C@@](Cn4ccnc4)(c4ccc(Cl)cc4Cl)O3)cc2)CC1 [ketoconazole, 1-[4-[4-[[(2S,4R)-2-(2,4-dichlorophenyl)-2-(imidazol-1-ylmethyl)-1,3-dioxolan-4-yl]methoxy]phenyl]piperazin-1-yl]ethanone] | highly effective | relatively ineffective | soluble | virtually insoluble

— patent publication US8501743B2, “Personal care composition” (Conopco, Inc., priority 2007, dated 2013)
